PMC6164331, “Synthesis, Evaluation for Cytotoxicity and Molecular Docking Studies of Benzo[c]furan-Chalcones for Potential to Inhibit Tubulin Polymerization and/or EGFR-Tyrosine Kinase Phosphorylation” (International Journal of Molecular Sciences, 2018)
Read-outs that look alike come from different tables or passages of the source. Starred links: 1 amine or outer side, 2 acyl side, 3 side chain; linkers in the order of their positions; H or OH if unused. Positions of bridges follow the written chain, without caps; N, C: chain ends. Non-standard residues stand in square brackets, D forms with d. Residues, ends and D or L forms follow the SMILES beside them. Chains are numbered I, II in the order given. Actinocin(9to1) = Cc1c2oc3c(C)ccc(C(=O)[*:1])c3nc-2c(C(=O)[*:2])c(N)c1=O; NMeV = CN[C@H](C(=O)O)C(C)C; Sar = CNCC(=O)O

Columns and labels:
MCF-7 cell line = assay: MTT cytotoxicity assay against the MCF-7 cell line; conditions: for IC50: read-out: MCF-7 Cell Line IC50 (μM) ± SD; for cytotoxicity against MCF-7 cells (in words): compared to actinomycin D
Experimental: The human breast cancer (MCF-7) cell line was maintained in culture flasks containing Dulbecco’s Modified Eagles Medium (DMEM). The media was supplemented with 1% antibiotics (100 µg/mL penicillin, 100 µg/mL streptomycin and 250 µg/L fungizone) and 10% heat-inactivated fetal bovine serum. […] The cells were sub-cultured every two-to-three days after the cells had formed a confluent monolayer.
The compounds were assessed at 0–100 µM. The control wells included vehicle treated cells exposed to 2% DMSO and the positive control, actinomycin D, with concentrations ranging between 5, 10, 25, and 50, and 100 µM. The microtitre plates were incubated for 48 h. After the 48 h incubation period the MTT reagent (10 µL) was added to a final concentration of 0.5 mg/mL and the plate was further incubated for another 4 h. After 4 h, 100 µL of the solubilisation solution was added to each well and the plate was allowed to stand overnight. Subsequently, the absorbance of the color complex was read at 550 nm with a reference wavelength set at 650 nm using a BIO-TEK Power-Wave XS multi-well plate reader (BioTech Instruments, Midrand, South Africa). The IC50 values of the compounds were calculated using OriginPro software (OriginLab Corporation, Northampton, MA, USA).

tubulin = tubulin (Sus scrofa, UniProt P02550+P02554); assay: Cell-free tubulin polymerization assay; format: biochemical; conditions: for IC50: colchicine as positive control, read-out: IC50 against tubulin polymerization; for inhibitory effect against tubulin polymerization (in words): compared to colchicine or to the other derivatives of the series
Sequence of tubulin (P02550 whole entry): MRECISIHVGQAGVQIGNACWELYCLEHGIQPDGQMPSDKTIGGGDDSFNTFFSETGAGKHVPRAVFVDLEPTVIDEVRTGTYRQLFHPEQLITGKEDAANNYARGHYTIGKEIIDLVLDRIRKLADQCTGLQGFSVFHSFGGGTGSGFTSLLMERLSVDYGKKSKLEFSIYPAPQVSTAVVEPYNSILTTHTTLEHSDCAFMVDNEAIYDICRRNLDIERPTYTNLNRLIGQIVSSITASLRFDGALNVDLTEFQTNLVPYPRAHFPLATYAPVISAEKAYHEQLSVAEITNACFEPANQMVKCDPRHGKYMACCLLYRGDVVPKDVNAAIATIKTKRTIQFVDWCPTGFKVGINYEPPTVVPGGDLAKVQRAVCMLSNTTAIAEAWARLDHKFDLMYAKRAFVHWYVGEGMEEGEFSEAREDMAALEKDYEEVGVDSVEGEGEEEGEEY
Sequence of tubulin (P02554 whole entry): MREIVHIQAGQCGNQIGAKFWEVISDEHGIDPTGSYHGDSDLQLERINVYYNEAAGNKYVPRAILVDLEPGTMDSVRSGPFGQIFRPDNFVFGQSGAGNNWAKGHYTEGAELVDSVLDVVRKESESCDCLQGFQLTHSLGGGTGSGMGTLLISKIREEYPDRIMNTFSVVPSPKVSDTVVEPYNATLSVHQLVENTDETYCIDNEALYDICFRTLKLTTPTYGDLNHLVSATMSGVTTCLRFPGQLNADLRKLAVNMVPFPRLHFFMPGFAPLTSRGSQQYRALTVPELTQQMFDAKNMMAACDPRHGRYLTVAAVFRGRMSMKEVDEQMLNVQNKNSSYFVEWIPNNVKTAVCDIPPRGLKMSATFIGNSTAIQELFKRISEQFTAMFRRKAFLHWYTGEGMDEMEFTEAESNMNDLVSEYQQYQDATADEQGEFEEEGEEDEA
Experimental: Tubulin polymerization assays were carried out using the tubulin polymerization assay kit (Cytoskeleton, Inc., Denver, CO, USA) following the instruction by the manufacturer.

EGFR-TK = molecular target: T1, EGFR-TK (Homo sapiens, UniProt P00533); assay: EGFR-TK phosphorylation inhibition assay (ELISA); format: biochemical; conditions: purified EGFR
T1 construct: purchased Sigma-Aldrich, Bradford, UK
T1 sequence (P00533 25-1210): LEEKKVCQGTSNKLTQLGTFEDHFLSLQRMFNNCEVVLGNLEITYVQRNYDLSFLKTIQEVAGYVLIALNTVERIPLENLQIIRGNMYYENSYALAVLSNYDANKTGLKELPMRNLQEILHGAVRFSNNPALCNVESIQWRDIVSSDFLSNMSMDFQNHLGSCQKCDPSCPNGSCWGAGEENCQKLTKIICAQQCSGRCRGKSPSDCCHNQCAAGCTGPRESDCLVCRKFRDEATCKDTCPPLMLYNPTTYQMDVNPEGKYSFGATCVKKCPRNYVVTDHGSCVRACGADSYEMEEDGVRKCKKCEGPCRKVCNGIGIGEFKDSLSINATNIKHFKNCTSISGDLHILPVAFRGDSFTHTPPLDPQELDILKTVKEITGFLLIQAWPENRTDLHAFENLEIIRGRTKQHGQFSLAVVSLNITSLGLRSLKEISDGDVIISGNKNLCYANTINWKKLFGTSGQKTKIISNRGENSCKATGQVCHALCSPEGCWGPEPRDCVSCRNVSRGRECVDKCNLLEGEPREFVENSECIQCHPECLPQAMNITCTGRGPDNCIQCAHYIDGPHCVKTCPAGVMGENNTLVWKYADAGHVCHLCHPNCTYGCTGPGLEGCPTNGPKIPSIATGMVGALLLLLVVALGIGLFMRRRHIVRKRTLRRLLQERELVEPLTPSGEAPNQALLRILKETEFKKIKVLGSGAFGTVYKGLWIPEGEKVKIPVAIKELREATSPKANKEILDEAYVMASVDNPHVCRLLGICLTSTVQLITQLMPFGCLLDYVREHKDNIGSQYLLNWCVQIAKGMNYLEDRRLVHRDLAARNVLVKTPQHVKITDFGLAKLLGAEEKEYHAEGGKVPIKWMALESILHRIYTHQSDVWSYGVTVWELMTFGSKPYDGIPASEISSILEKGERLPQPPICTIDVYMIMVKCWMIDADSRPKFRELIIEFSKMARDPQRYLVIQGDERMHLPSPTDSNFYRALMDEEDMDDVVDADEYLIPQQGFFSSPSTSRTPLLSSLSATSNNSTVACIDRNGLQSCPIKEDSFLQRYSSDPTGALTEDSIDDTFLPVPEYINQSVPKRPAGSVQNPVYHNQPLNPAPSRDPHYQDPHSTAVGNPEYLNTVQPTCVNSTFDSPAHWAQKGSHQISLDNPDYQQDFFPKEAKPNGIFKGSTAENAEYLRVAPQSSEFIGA
Experimental: The procedure was carried out according to the manufacturer’s protocol and referring to reported instructions as described in our previous investigation.

MCF-7 cells = assay: Annexin V-Cy3 SYTOX staining apoptosis assay (flow cytometry); format: cell-based, human; conditions: for viability at 1 µM: Homo sapiens, read-out: %Viable Cells (Q3)
Description: Several distinctive modes of cell death such as apoptosis, necrosis, autophagy, and cornification exist and are characterized by differences in their morphology and their biochemical changes. […] We employed the Annexin V-Cy3 SYTOX apoptosis assay kit to distinguish between viable cells (Annexin V-negative; PI-negative), early apoptotic cells (Annexin V-positive; PI-negative), late apoptotic cells (Annexin V-positive; PI-positive) and unviable or necrotic cells (Annexin V-negative; PI-positive). The cells were analyzed by the flow cytometry, which is an important tool to evaluate the molecular and morphological events that take place during cell death and cell proliferation.
The percentage population of apoptotic cells were determined using Annexin V–Cy3 SYTOX apoptosis detection kit (Abcam, Milton, Cambridge, UK) according to the manufacturer’s instructions. […] The cells were incubated for 48 h and then stained with Annexin V–Cy3 SYTOX green dye. The cells were analyzed using BD Biosciences FACSAria III flow cytometer (BD Biosciences, San Jose, CA, USA).

Caspase-3 (Asp175) = assay: Caspase-3 activation colorimetric assay in MCF-7 cells; format: cell-based, human; conditions: 1 µM, 24 h, compared to 3i and actinomycin D
Experimental: Activation of caspases (caspase-2, 3, 6, 7, 8, 9, and 10) is a major biochemical feature that plays a central role in the morphological changes associated with apoptosis. Consequently, we evaluated compounds 3b and 3i for their potential to induce caspase-3 activation in the MCF-7 cells.
Caspase-3 activity was detected by means of Caspase-3 Colorimetric Assay Kit (Abcam, Cambridge, MA, USA). The cells were cultured in 24 well plates and treated for 24 h with 3b or 3i at a concentration of 1 µM against actinomycin D (1 µM) as a reference standard, respectively. The cells were then washed with PBS buffer and lysed on ice. The experiments were carried out according to the manufacturer’s instructions. Optical density was measured at absorbance of 450 nm using the BioTek microplate reader. The concentration of active Caspase-3 (Asp 175) were measured in duplicates and interpolated from the active caspase-3 (Asp 175) standard curve and corrected for sample dilution.

[1] = MTT, 48 h incubation, three individual experiments

| Compound | IC50 (MCF-7 cell line; Homo sapiens, MCF7, 48 h) | melting point | IC50 (tubulin) | also measured |
| --- | --- | --- | --- | --- |
| COc1ccc(-c2cc3cc(Br)cc(C(=O)/C=C/c4ccc(OC(F)(F)F)cc4)c3o2)cc1 [3y] | 43.17 ± 0.28 µM | 187 to 188 °C | 78 µM |  |
| O=C(/C=C/c1ccccc1)c1cc(Br)cc2cc(-c3cccc(Cl)c3)oc12 [3p] | 12.6 ± 0.23 µM | 218 to 219 °C | 0.0937 µM | IC50 (EGFR-TK): 0.17 ± 0.06 µM; inhibitory effect against tubulin polymerization (in words) (tubulin): significant inhibitory effects |
| O=C(/C=C/c1ccccc1)c1cc(Br)cc2cc(-c3cccc(F)c3)oc12 [3k] | 23 ± 0.38 µM | 243 to 245 °C | 77 µM |  |
| O=C(/C=C/c1ccc(OC(F)(F)F)cc1)c1cc(Br)cc2cc(-c3ccccc3)oc12 [3e] | 0.59 ± 0.21 µM |  |  |  |
| O=C(/C=C/c1ccc(Cl)cc1)c1cc(Br)cc2cc(-c3ccccc3)oc12 [3c] | > 100 µM | 242 to 245 °C | 26.4 µM |  |
| COc1ccc(-c2cc3cc(Br)cc(C(=O)/C=C/c4ccc(Cl)cc4)c3o2)cc1 [3w] | 30.6 ± 0.35 µM | 209 to 210 °C | 48.4 µM |  |
| COc1ccc(/C=C/C(=O)c2cc(Br)cc3cc(-c4cccc(Cl)c4)oc23)cc1 [3s] | 2.69 ± 0.23 µM | 214 to 215 °C | 0.71 µM | inhibitory effect against tubulin polymerization (in words) (tubulin): significant inhibitory effects |
| O=C(/C=C/c1ccc(OC(F)(F)F)cc1)c1cc(Br)cc2cc(-c3cccc(Cl)c3)oc12 [3t] |  |  | 2.83 µM | IC50 (MCF-7 cell line; [1]): 26.6 ± 0.27 µM |
| O=C(/C=C/c1ccc(Cl)cc1)c1cc(Br)cc2cc(-c3ccc(F)cc3)oc12 [3h] | 54.16 ± 0.4 µM | 231 to 233 °C | 1.33 µM | cytotoxicity against MCF-7 cells (in words) (MCF-7 cell line; MTT): reduced cytotoxicity |
| O=C(/C=C/c1ccc(F)cc1)c1cc(Br)cc2cc(-c3ccc(F)cc3)oc12 [3g] | 48.6 ± 2.1 µM | 239 to 242 °C | 13.2 µM | cytotoxicity against MCF-7 cells (in words) (MCF-7 cell line; MTT): reduced cytotoxicity |
| Cc1c2oc3c(C)ccc(C(=O)N[C@@H]4C(=O)N[C@H](C(C)C)C(=O)N5CCC[C@H]5C(=O)N(C)CC(=O)N(C)[C@@H](C(C)C)C(=O)O[C@@H]4C)c3nc-2c(C(=O)N[C@@H]2C(=O)N[C@H](C(C)C)C(=O)N3CCC[C@H]3C(=O)N(C)CC(=O)N(C)[C@@H](C(C)C)C(=O)O[C@@H]2C)c(N)c1=O [Actinomycin D, reference compound] (I: T[dV]P[Sar][NMeV] / II: T[dV]P[Sar][NMeV]; ester I:1-I:C, II:1-II:C; linker I:N-II:N via Actinocin(9to1)) | 37.8 ± 1.3 µM |  |  | IC50 (EGFR-TK): 0.04 ± 0.03 µM; viability at 1 µM (MCF-7 cells; MCF7, 48 h): 30.7%; %Early Apoptosis (Q4) (MCF-7 cells; MCF-7 cells, 1 µM, 48 h): 3.4%; %Late Apoptosis (Q2) (MCF-7 cells; MCF-7 cells, 1 µM, 48 h): 61.4%; %Necrosis (Q1) (MCF-7 cells; MCF-7 cells, 1 µM, 48 h): 4.5% |
| COc1ccc(/C=C/C(=O)c2cc(Br)cc3cc(-c4ccccc4)oc23)cc1 [3d] | 22.8 ± 0.86 µM | 206 to 208 °C | 34.5 µM |  |
| O=C(/C=C/c1ccc(F)cc1)c1cc(Br)cc2cc(-c3cccc(F)c3)oc12 [3l] | > 100 µM | 266 to 267 °C | 3.98 µM | cytotoxicity against MCF-7 cells (in words) (MCF-7 cell line; MTT): inactive |
| O=C(/C=C/c1ccc(Cl)cc1)c1cc(Br)cc2cc(-c3cccc(F)c3)oc12 [3m] | 14.8 ± 0.33 µM | 234 to 235 °C | 10.2 µM |  |
| O=C(/C=C/c1ccc(Cl)cc1)c1cc(Br)cc2cc(-c3cccc(Cl)c3)oc12 [3r] | 66.8 ± 0.84 µM | 257 to 258 °C | 34.5 µM |  |
| COc1ccc(/C=C/C(=O)c2cc(Br)cc3cc(-c4ccc(OC)cc4)oc23)cc1 [3x] | 69.1 ± 0.76 µM | 216 to 217 °C | 67.4 µM |  |
| O=C(/C=C/c1ccc(OC(F)(F)F)cc1)c1cc(Br)cc2cc(-c3ccc(F)cc3)oc12 [3j] |  |  | 0.00885 µM | IC50 (MCF-7 cell line; [1]): 16 ± 0.62 µM |
| COc1ccc(-c2cc3cc(Br)cc(C(=O)/C=C/c4ccccc4)c3o2)cc1 [3u] | 48.96 ± 0.3 µM | 255 to 256 °C |  |  |
| O=C(/C=C/c1ccccc1)c1cc(Br)cc2cc(-c3ccc(F)cc3)oc12 [3f] | 35.8 ± 1.2 µM | 224 to 226 °C | 23.3 µM |  |
| COc1ccc(/C=C/C(=O)c2cc(Br)cc3cc(-c4ccc(F)cc4)oc23)cc1 [3i, (E)-1-(5-Bromo-2-(4-fluorophenyl)benzofuran-7-yl)-3-(4-methoxyphenyl)prop-2-en-1-one] | 0.000355 µM |  | 5.51e-05 µM | IC50 (EGFR-TK): 0.09 ± 0.03 µM; viability at 1 µM (MCF-7 cells; MCF7, MCF-7 cells, 1 µM, 48 h): 32.2%; %Early Apoptosis (Q4) (MCF-7 cells; MCF-7 cells, 1 µM, 48 h): 3.1%; %Late Apoptosis (Q2) (MCF-7 cells; MCF-7 cells, 1 µM, 48 h): 61.7%; %Necrosis (Q1) (MCF-7 cells; MCF-7 cells, 1 µM, 48 h): 3.1% |
| COc1ccc(-c2cc3cc(Br)cc(C(=O)/C=C/c4ccc(F)cc4)c3o2)cc1 [3v] | 28.4 ± 0.46 µM | 241 to 242 °C | 0.0162 µM | IC50 (EGFR-TK): 0.15 ± 0.02 µM |
| O=C(/C=C/c1ccc(F)cc1)c1cc(Br)cc2cc(-c3ccccc3)oc12 [3b] | 0.55 ± 0.24 µM |  | 26.5 µM | IC50 (EGFR-TK): 0.17 ± 0.03 µM; caspase-3 activation (in words) (Caspase-3 (Asp175)): does not induce significant caspase activation; viability at 1 µM (MCF-7 cells; MCF7, MCF-7 cells, 1 µM, 48 h): 23.3%; %Early Apoptosis (Q4) (MCF-7 cells; MCF-7 cells, 1 µM, 48 h): 1.5%; %Late Apoptosis (Q2) (MCF-7 cells; MCF-7 cells, 1 µM, 48 h): 72%; %Necrosis (Q1) (MCF-7 cells; MCF-7 cells, 1 µM, 48 h): 3.2%; induction of apoptosis (in words) (MCF-7 cells; MCF-7 cells, 1 µM, 48 h, compared to 3i and actinomycin D): induced increased apoptosis |
| O=C(/C=C/c1ccc(F)cc1)c1cc(Br)cc2cc(-c3cccc(Cl)c3)oc12 [3q] | 23.8 ± 0.29 µM | 232 to 233 °C | 51.3 µM |  |
| COc1ccc(/C=C/C(=O)c2cc(Br)cc3cc(-c4cccc(F)c4)oc23)cc1 [3n] | 39.2 ± 0.42 µM | 221 to 222 °C |  | inhibitory effect against tubulin polymerization (in words) (tubulin): Moderate activity |
| O=C(/C=C/c1ccc(OC(F)(F)F)cc1)c1cc(Br)cc2cc(-c3cccc(F)c3)oc12 [3o, (E)-1-(5-Bromo-2-(3-fluorophenyl)benzofuran-7-yl)-3-(4-(trifluoromethoxy)phenyl)prop-2-en-1-one] | 7.87 ± 0.25 µM | 186 to 187 °C | 0.000176 µM | IC50 (EGFR-TK): 0.12 ± 0.04 µM |
| O=C(/C=C/c1ccccc1)c1cc(Br)cc2cc(-c3ccccc3)oc12 [3a] | 48 ± 2.1 µM |  | 15.6 µM |  |
